Assay results as given in ChEMBL document CHEMBL1201862, “PubChem BioAssay data set” (2004).
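All cell lines were grown in 96-well plates and treated with compound for 48 hours. GI50: concentration for 50% inhibition of growth.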 Activity calls are given as the source filed them. No stated cut-off is given here; in the data, active = GI50 up to about 1.1 µM and inactive = higher.

Assays:
Test in all cases: DTP human tumour cell line panel, 48 h
[1] = system: HT-29
[2] = system: RPMI-8226
[3] = system: MCF7
[4] = system: TK-10
[5] = system: HCT-116
[6] = system: ACHN
[7] = system: OVCAR-3
[8] = system: HOP-62
[9] = system: MDA-MB-231
[10] = system: UO-31
[11] = system: HL-60
[12] = system: SN12C
[13] = system: MDA-N
[14] = system: UACC-62
[15] = system: NCI-H522
[16] = system: 786-0
[17] = system: SF-268
[18] = system: CAKI-1
[19] = system: K562
[20] = system: T47D
[21] = system: SK-MEL-28
[22] = system: DU-145
[23] = system: A498
[24] = system: SK-OV-3
[25] = system: Hs-578T
[26] = system: COLO 205
[27] = system: SW-620
[28] = system: A549
[29] = system: UACC-257
[30] = system: IGROV-1
[31] = system: SNB-75
[32] = system: CCRF-CEM
[33] = system: M14
[34] = system: SK-MEL-5
[35] = system: OVCAR-5
[36] = system: LOX IMVI
[37] = system: NCI/ADR-RES
[38] = system: HOP-92
[39] = system: OVCAR-8
[40] = system: SF-539
[41] = system: EKVX
[42] = system: NCI-H23
[43] = system: SNB-19
[44] = system: NCI-H226
[45] = system: KM12
[46] = system: Malme-3M
[47] = system: NCI-H460
[48] = system: MDA-MB-435
[49] = system: RXF 393
[50] = system: OVCAR-4
[51] = system: SF-295
[52] = system: SR
[53] = system: PC-3
[54] = system: MOLT-4
[55] = system: HCT-15
[56] = system: U-251

## CC(CO)CCNc1ncnc2c1ncn2CCC(=O)O (configuration not stated)
[1]
  GI50: > 100 µM (inactive)
[2]
  GI50: > 100 µM (inactive)
[3]
  GI50: > 100 µM (inactive)
[4]
  GI50: > 100 µM (inactive)
[5]
  GI50: > 100 µM (inactive)
[6]
  GI50: > 100 µM (inactive)
[7]
  GI50: > 100 µM (inactive)
[8]
  GI50: > 100 µM (inactive)
[9]
  GI50: > 100 µM (inactive)
[10]
  GI50: > 100 µM (inactive)
[11]
  GI50: > 100 µM (inactive)
[12]
  GI50: > 100 µM (inactive)
[13]
  GI50: > 100 µM (inactive)
[14]
  GI50: > 100 µM (inactive)
[15]
  GI50: > 100 µM (inactive)
[16]
  GI50: > 100 µM (inactive)
[17]
  GI50: > 100 µM (inactive)
[18]
  GI50: > 100 µM (inactive)
[19]
  GI50: > 100 µM (inactive)
[20]
  GI50: > 100 µM (inactive)
[21]
  GI50: > 100 µM (inactive)
[22]
  GI50: > 100 µM (inactive)
[23]
  GI50: > 100 µM (inactive)
[24]
  GI50: > 100 µM (inactive)
[25]
  GI50: > 100 µM (inactive)
[26]
  GI50: > 100 µM (inactive)
[27]
  GI50: > 100 µM (inactive)
[28]
  GI50: > 100 µM (inactive)
[29]
  GI50: > 100 µM (inactive)
[30]
  GI50: > 100 µM (inactive)
[31]
  GI50: > 100 µM (inactive)
[32]
  GI50: > 100 µM (inactive)
[33]
  GI50: > 100 µM (inactive)
[34]
  GI50: > 100 µM (inactive)
[35]
  GI50: > 100 µM (inactive)
[36]
  GI50: > 100 µM (inactive)
[37]
  GI50: > 100 µM (inactive)
[38]
  GI50: > 100 µM (inactive)
[39]
  GI50: > 100 µM (inactive)
[40]
  GI50: > 100 µM (inactive)
[41]
  GI50: > 100 µM (inactive)
[42]
  GI50: > 100 µM (inactive)
[43]
  GI50: > 100 µM (inactive)
[44]
  GI50: > 100 µM (inactive)
[45]
  GI50: > 100 µM (inactive)
[46]
  GI50: > 100 µM (inactive)
[47]
  GI50: > 100 µM (inactive)
[48]
  GI50: > 100 µM (inactive)
[49]
  GI50: > 100 µM (inactive)
[50]
  GI50: > 100 µM (inactive)
[51]
  GI50: > 100 µM (inactive)
[52]
  GI50: > 100 µM (inactive)
[53]
  GI50: > 100 µM (inactive)
[54]
  GI50: > 100 µM (inactive)

## COc1cc(OC)c(CSCC(NC(=O)OCC2c3ccccc3-c3ccccc32)C(=O)O)c(OC)c1 (configuration not stated)
[1]
  GI50: > 10 µM (inactive)
[4]
  GI50: > 10 µM (inactive)
[5]
  GI50: > 10 µM (inactive)
[55]
  GI50: > 10 µM
[6]
  GI50: > 10 µM (inactive)
[7]
  GI50: > 10 µM (inactive)
[9]
  GI50: > 10 µM (inactive)
[10]
  GI50: 5.68 µM (inactive)
[12]
  GI50: > 10 µM (inactive)
[13]
  GI50: > 10 µM (inactive)
[17]
  GI50: > 10 µM (inactive)
[18]
  GI50: > 10 µM (inactive)
[21]
  GI50: > 10 µM (inactive)
[22]
  GI50: > 10 µM (inactive)
[23]
  GI50: > 10 µM (inactive)
[26]
  GI50: > 10 µM (inactive)
[27]
  GI50: > 10 µM (inactive)
[28]
  GI50: > 10 µM (inactive)
[30]
  GI50: > 10 µM (inactive)
[31]
  GI50: 6.95 µM (inactive)
[33]
  GI50: > 10 µM (inactive)
[34]
  GI50: > 10 µM (inactive)
[35]
  GI50: > 10 µM (inactive)
[37]
  GI50: > 10 µM (inactive)
[38]
  GI50: > 10 µM (inactive)
[39]
  GI50: > 10 µM (inactive)
[40]
  GI50: > 10 µM (inactive)
[41]
  GI50: > 10 µM (inactive)
[42]
  GI50: > 10 µM (inactive)
[43]
  GI50: > 10 µM (inactive)
[44]
  GI50: 5.22 µM (inactive)
[45]
  GI50: > 10 µM (inactive)
[48]
  GI50: > 10 µM (inactive)
[56]
  GI50: > 10 µM (inactive)
[49]
  GI50: > 10 µM (inactive)
[50]
  GI50: > 10 µM (inactive)
[51]
  GI50: > 10 µM (inactive)
[53]
  GI50: > 10 µM (inactive)
